Experiments:
[1] = biological target: T1, FXR ligand-binding domain (Homo sapiens, UniProt Q96RI1); assay: FRET-based coactivator binding assay (SRC-1 peptide recruitment); type: biochemical
T1 sequence (Q96RI1 262-486 limits assumed): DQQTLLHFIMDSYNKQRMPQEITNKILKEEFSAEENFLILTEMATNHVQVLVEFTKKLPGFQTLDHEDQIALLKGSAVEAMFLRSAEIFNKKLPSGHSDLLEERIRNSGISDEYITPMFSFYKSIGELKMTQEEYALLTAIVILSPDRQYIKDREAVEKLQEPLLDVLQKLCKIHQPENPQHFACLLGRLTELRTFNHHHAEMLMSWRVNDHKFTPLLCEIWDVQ
Excerpt: To determine if the compounds identified as ligands could promote the association of FXR with co-activators in vitro, a fluorescence resonance energy transfer (FRET)-based coactivator binding assay was employed (see, for example, Makishima et al. (1999), supra, Urizar et al. (2002). A natural product that lowers cholesterol as an antagonist ligand for FXR. Science. 296(5573), 1703-6). This assay relies on an agonist-induced interaction between the nuclear receptor and its coactivator bringing two fluorogenic partners together resulting in the nuclear receptor ligand-dependent FRET.

[2] = system: IBABP mRNA in HT29-FXRFL cells; assay: Northern blot of IBABP mRNA in HT29 stable cell lines; type: cell-based, Human; conditions: for concentration for maximal induction of IBABP mRNA: overnight treatment
Experimental: HepG2 or HT29-derived cell lines were typically cultured in medium containing superstripped FBS for 24 hr before the addition of a ligand or DMSO (vehicle) for an additional 24-48 hr. Total RNA was isolated using TRIzol reagent and was resolved (10 μg/lane) on a 1% agarose, 2.2 M formaldehyde gel, transferred to a nylon membrane (Hybond N^+; Amersham Biosciences, Inc.), and cross-linked to the membrane with UV light.
cDNA probes were radiolabeled with [α-^32P]dCTP using the highprime labeling kit (Amersham Biosciences, Inc.). Membranes were hybridized using the QuikHyb hybridization solution (Stratagene, La Jolla, Calif.) according to the manufacturer's protocol. Blots were normalized for variations of RNA loading by hybridization to a control probe, either, 18 S ribosomal cDNA, or the ribosomal protein 36B4. The RNA levels were quantitated using a PhosphorImager (ImageQuant software; Molecular Dynamics, Inc., Sunnyvale, Calif.) in addition to being exposed to X-ray film.
Human colon cells HT29 (FXR null until differentiated) were infected with retroviral vectors that expressed either FXR constructs and the puromycin-resistant gene or the puromycin-resistant gene alone. Puromycin resistant cells were isolated and pooled cell populations were propagated that harbored either the vector alone (HT29-BABE), overexpressed FXR full length (HT29-FXRFL), a non-functional FXR truncated at the AF2 region (HT29-FXR-AF2), or a constitutively active FXR that has the VP16 activation domain fused N-terminal of the protein (HT29-VP16-FXR). Confirmation of the successful establishment of the different stable cell lines was established via northern blot analysis of FXR message levels in the cells.
These observations verify the usefulness of this colon cell model system for studying the induction of FXR target genes.
The ability of the novel compounds identified herein to induce IBABP gene expression in this cell system was also examined. Total RNA from HT29 stable cells treated overnight with fexaramine, fexarine and fexarene was probed for IBABP gene expression.

[3] = system: FXR (IBABP, PLTP and MRP-2 promoters); assay: transient transfection cell-based assay with natural promoters of FXR targets (IBABP, PLTP, MRP-2)
Excerpt: For this study, the following gene promoters were used: intestinal bile acid binding protein (IBABP; see, for example, Grober et al. (1999). Identification of a bile acid-responsive element in the human ileal bile acid-binding protein gene. Involvement of the farnesoid X receptor/9-cis-retinoic acid receptor heterodimer. J Biol Chem. 274(42), 29749-54), phospholipid transfer protein (PLTP) (Urizar et al (2000). The farnesoid X-activated receptor mediates bile acid activation of phospholipid transfer protein gene expression. J Biol Chem. 275(50), 39313-7) and multidrug resistance related protein 2 (MRP-2) (Kast et al. (2002), supra), which are all well characterized targets of FXR. The natural promoters of both the IBABP and PLTP genes contain one copy of an inverted repeat with a one base spacing (IR-1) while MRP-2 contains an ER-8 element. […] The most robust activation (28-fold) was seen on the IBABP promoter. Less robust (2-3 fold) but specific activation was observed on the PLTP and MRP-2 promoters.

[4] = HT29-BABE or HT29-FXR-AF2 cell lines

| EC50 [1] [nM] | SMILES | induction of IBABP mRNA, in words [2, 4] | induction of IBABP mRNA, in words ([2]; HT29-FXRFL cells) | concentration for maximal induction of IBABP mRNA ([2]; HT29-FXRFL cells) [µM] | concentration of maximum efficacy [3] [µM] |
| --- | --- | --- | --- | --- | --- |
| 255 | COC(=O)/C=C/c1cccc(N(Cc2ccc(-c3ccc(N(C)C)cc3)cc2)C(=O)C2CCCCC2)c1 [Compound 259] | No induction | induced expression of the IBABP mRNA | 1 | 1 |
| ~255 | COC(=O)C=Cc1cccc(N(Cc2ccc(C=Cc3ccccc3)cc2)C(=O)C2CCCCC2)c1 [Compound 121] | No induction | induced expression of the IBABP mRNA | 1 | 1 |
| 222 | COC(=O)/C=C/c1cccc(N(Cc2ccc(-c3ccc4c(c3)OCO4)cc2)C(=O)C2CCCCC2)c1 [Compound 244] | No induction | induced expression of the IBABP mRNA | 1 | 1 |

From patent US7671085B2, “Non-steroidal farnesoid X receptor modulators and methods for the use thereof” (The Salk Institute for Biological Studies, priority 2002, dated 2010)
